The source of these data is article PMC12406203 (Journal of Medicinal Chemistry, 2025).

In series [1] the test system is mice (motor coordination). To be noted: already at the dose of 1 mg/kg, as shown previously; cited from earlier work.
The conditions of series [2]: PAMPA.
Series [3] has as its system TLR4, COX-2, NLRP3, cPLA2 levels in brains of LPS-treated mice. Kind of series: Western blot of brains of LPS-treated mice (ex vivo). The class given is in vivo. The following applies: 94, 95: 10 mg/kg i.p.; rivastigmine 1 mg/kg i.p.; vs LPS-treated control. The protocol:
After the completion of cognitive assays carried out in the LPS model, the mice were sacrificed, and their brains were collected and stored for further analysis. In the ex vivo part of the study, murine brains were homogenized using T-PER mammalian protein extraction reagent (Thermo Fisher Scientific, Waltham, MA, USA) with protease (Merck Millipore, Burlington, MA, USA) and phosphatase inhibitors (Cayman Chemical, Ann Arbor, MI, USA). The total protein concentrations were determined using the Bradford reaction. Forty μg of the total proteins were solubilized in Laemmli buffer with 2% 2-mercaptoethanol and were subject to 10% SDS-polyacrylamide gel electrophoresis. The anticyclooxygenase 2 (COX-2, diluted 1:1000), antitoll-like receptor 4 (TLR4, diluted 1:1000), anticytosolic phospholipase A2 (cPLA2, 1:1000), and anti-inflammasome (NLPR3, diluted 1:500) were used (Thermo Fisher Scientific, Waltham, MA, USA). The endogenous control was β-actin (1:1000) (Thermo Fisher Scientific, Waltham, MA, USA). The secondary antibody was antirabbit IgG (HRP) diluted 1:2000 (Thermo Fisher Scientific, Waltham, MA, USA). Proteins were detected using the Clarity Western ECL Luminol Substrate (Bio-Rad, Hercules, CA, USA). Chemi Doc Camera with Image Lab 6.1 software (Bio-Rad) was used to quantify the integrated optical density of the bands. The results were normalized to the data obtained for β-actin after stripping the PVDF membrane using Restore Western Blot Stripping Buffer (Thermo Fisher Scientific, Waltham, MA, USA) and expressed as relative to the control. This thorough process ensures the validity and reliability of the results.

For series [4], the system named is scopolamine-induced cognitive deficits in mice. The following applies: scopolamine-induced memory-impaired mice; doses of 1 and 2.5 mg/kg; reported previously; cited from earlier work.
Series [5] has the same test system. To be noted: 1 and 2.5 mg/kg doses; as shown previously; cited from earlier work.
A short description of series [6]: Pharmacokinetic study in mice. The following applies: for Kp: brain/serum; for half-life: serum and brain.
Description: In this study, male CD-1 mice weighing 27–34 g housed in conditions of constant temperature with a 12:12 h light-dark cycle with free access to food and water were used. Both tested and reference compounds were suspended in 1% Tween in water for injection (Polpharma, Poland) and administered intraperitoneally (i.p.). The mice were sacrificed by decapitation under isoflurane anesthesia at different time points following compound administration. Brains were harvested at the same time points. Blood was allowed to clot at room temperature for 20 min, and serum was separated by centrifugation at 8 000g (Eppendorf MiniSpin centrifuge, Germany) for 10 min. All samples were stored at −80 °C until analysis.
The analytical workflow employed a Sciex QTRAP 4500 triple quadrupole mass spectrometer interfaced with an Exion LC AC HPLC system (Danaher Corporation, USA). Chromatographic separation was achieved on an XBridge C18 column (3 × 50 mm, 5 μm; Waters, USA), utilizing a mobile phase composed of acetonitrile and water both containing 0.1% formic acid. The column temperature was maintained at 40 °C, and a gradient elution protocol (Table S10) was implemented to ensure optimal analyte resolution and retention times. Mass spectrometric detection was conducted in unit resolution mode, with ion transitions specified in Table S11. […] Valsartan served as the internal standard and was monitored at m/z 436 → 207 (collision energy = 42 eV). Positive electrospray ionization (ESI+) was employed to enhance detection sensitivity. Ion path parameters (Table S11) were optimized via direct infusion of analyte solutions (7 μL/min) using a syringe pump. The optimized source conditions included an ion spray voltage of 5500 V, a source temperature of 450 °C, curtain gas pressure at 20 psi, and medium collision gas pressure. […] No significant matrix effects or stability concerns were observed during routine sample analysis. Data acquisition and processing were carried out using Analyst software version 1.7.
Serial dilutions were performed to generate working solutions ranging from 0.01 to 20 μg/mL, corresponding to final calibration concentrations of 0.001–2 μg/mL. For calibration curve construction, 5 μL of each working solution was spiked into 45 μL of the relevant biological matrix (serum or brain homogenate) and vortexed for 10 s. Sample preparation involved protein precipitation, in a 1:3 (v/v) ratio, using acetonitrile containing 0.1% formic acid and the internal standard. The mixtures were agitated for 10 min using an IKA Vibrax VXR shaker (Germany), followed by centrifugation at 8000 × g for 5 min (Eppendorf miniSpin, Germany). The resulting supernatants were transferred to chromatographic vials for analysis.
Brain tissues were homogenized in distilled water at a 1:4 (w/v) ratio using an ULTRA-TURRAX T10 basic homogenizer (IKA, Germany). Aliquots of brain homogenate or serum (50 μL) were subjected to protein precipitation in a 1:3 (v/v) ratio with acetonitrile containing 0.1% formic acid and the internal standard. The mixtures were agitated for 10 min using an IKA Vibrax VXR shaker (Germany), followed by centrifugation at 8000 × g for 5 min (Eppendorf miniSpin, Germany). The resulting supernatants were directly transferred to chromatographic vials for analysis. In cases where analyte concentrations in serum exceeded 20 μg/mL, samples were diluted with blank matrix prior to the deproteinization step. The autosampler was maintained at 15 °C, and a 1 μL aliquot was injected onto the analytical column.
Pharmacokinetic parameters were estimated using the noncompartmental analysis (NCA). The maximum concentration (C max) and the time to reach maximum concentration (t max) in serum and brain were obtained directly from the concentration versus time data.
The subject of series [7] is LPS-treated mice. In words: Morris water maze task, LPS model of neuroinflammation. Format: in vivo.
Description: The compounds were administered for 10 consecutive days, and on the last 6 days of their administration, LPS was also administered intraperitoneally 5 h before the test compounds. On these 6 days, the acquisition phase of the MWM task was performed. One day later, the retention, drug-off trial of the MWM task was carried out.
In the LPS model adult male C57BL/6J mice (Animal Breeding Farm of the Faculty of Pharmacy, Jagiellonian University Medical College) of similar weight and age were used. […] The mice had unlimited access to food and water prior to the experiment. Specified conditions for the maintenance of mice were ensured throughout the experiment, including tree bedding (Transwior, Poland) and cage enrichment (tunnels, nesting material, wooden igloos, etc.). For behavioral tests, the mice were selected randomly; each group consisted of 7–10 mice. […] After in vivo tests, the animals were immediately euthanized, and their tissues were collected and stored for further ex vivo testing.
LPS (Lipopolysaccharide from Escherichia coli O111:B4, Sigma-Aldrich, Poland) was used to induce neuroinflammation in mice. […] They were administered intraperitoneally (i.p.) 60 min before the acquisition trial of the PA, NOR, and MWM tasks. […] In the rotarod, locomotor activity, and MWM tests, only one dose effective in the scopolamine model of amnesia was evaluated.
The Morris water maze is a circular, plastic, and gray-painted pool (120 cm in diameter and 60 cm in height), filled with water (up to about 48 cm below the edge to prevent an animal from jumping out), maintained at 23 ± 1 °C. The pool was divided into four equal quadrants (compass locations: NE, NW, SE, SW) by a computerized video tracking system (SMART, ver. 3.0; Panlab, Spain). An escape platform (11 cm in diameter and 47 cm in height) at a fixed location (the center of the NW quadrant, i.e., the target quadrant) was made of transparent Plexiglas, being invisible to the swimming animal, and was immersed 1 cm under the surface of water. The maze was lighted with an intensity of 45 lx. […] The time taken to reach the hidden platform (escape latency) on days 1–6 was recorded for each mouse and analyzed. Each animal was released from a different starting point and was allowed to swim for 60 s. […] On the seventh day (a drug-off trial conducted 24 h after the last training trial), the platform was removed from the pool, and a probe trial was performed (without drug treatmentassessment of memory retention).
Series [8] concerns scopolamine-induced cognitive deficits in mice. Kind of series: Passive avoidance task, scopolamine-induced amnesia. Format: in vivo. The following applies: 1–30 mg/kg i.p.
Excerpt: (§1) In the scopolamine model, the PA and NOR tasks were used for dose selection for further testing.
The mice had unlimited access to food and water prior to the experiment. Specified conditions for the maintenance of mice were ensured throughout the experiment, including tree bedding (Transwior, Poland) and cage enrichment (tunnels, nesting material, wooden igloos, etc.). For behavioral tests, the mice were selected randomly; each group consisted of 7–10 mice.
(§2) Scopolamine hydrobromide (Sigma-Aldrich, Poland) at the dose of 1 mg/kg was used to induce learning and memory deficits. For the in vivo tests, scopolamine was prepared in distilled water (Polfa Kutno, Poland) and was administered subcutaneously (s.c.) 30 min before behavioral tests during the acquisition (training) trial of PA and NOR tasks. […] They were administered intraperitoneally (i.p.) 60 min before the acquisition trial of the PA, NOR, and MWM tasks.
The PA apparatus (Panlab Harvard Apparatus, Spain) consists of a large white-colored illuminated compartment (26 cm × 26 cm × 34 cm) and a small black-colored compartment (13 cm × 7.5 cm × 7.5 cm), which are separated from each other by a guillotine gate (5 cm × 5 cm). The PA task is divided into two trials (i.e., the acquisition trial and the retention trial), each conducted 24 h apart. On the first day, during the acquisition trial (a conditioning phase), the test compounds (94 and 95, neflamapimod and vehicle) were injected. Also, before the acquisition trial, scopolamine or LPS was administered at selected time points. Then, each mouse was placed into the white compartment, and a 30 s habituation period began (guillotine gate is closed). After that, the guillotine gate was opened, and the mice were tested during the 180 s testing period. As soon as the mouse entered the black compartment of the PA device, the guillotine gate was closed and an electrical shock (intensity: 0.2 mA, duration: 2 s) was automatically applied through the grid floor. For each mouse, the latency between the opening of the guillotine gate and the mouse’s entering the black compartment was measured. On the next day, during the retention (drug-off) trial, the mice were placed again into the white compartment for a 30 s habituation period, and the latency to enter the black compartment was measured for each mouse.
The test system of series [9] is mice (locomotor activity). Kind of series: Locomotor activity test. To be noted: 30 mg/kg, i.p., mean ± SEM.
Excerpt: The mice had unlimited access to food and water prior to the experiment. Specified conditions for the maintenance of mice were ensured throughout the experiment, including tree bedding (Transwior, Poland) and cage enrichment (tunnels, nesting material, wooden igloos, etc.). For behavioral tests, the mice were selected randomly; each group consisted of 7–10 mice. […] After in vivo tests, the animals were immediately euthanized, and their tissues were collected and stored for further ex vivo testing.
They were administered intraperitoneally (i.p.) 60 min before the acquisition trial of the PA, NOR, and MWM tasks.
The locomotor activity test was performed using activity cages (40 cm × 40 cm × 30 cm, supplied with IR beam emitters) (Activity Cage 7441, Ugo Basile, Italy) connected to a counter for the recording of light-beam interrupts. […] The animals’ movements (i.e., the number of light-beam crossings) were counted during the next 60 min of the test. Before the experiment, the mice were habituated to activity cages for 15 min.
Series [10] deals with scopolamine-induced cognitive deficits in mice. Kind of series: Novel object recognition task, scopolamine-induced amnesia. Format: in vivo. The following applies: 1, 10, and 30 mg/kg i.p.; scopolamine model.
Excerpt: as §1
The mice had unlimited access to food and water prior to the experiment. Specified conditions for the maintenance of mice were ensured throughout the experiment, including tree bedding (Transwior, Poland) and cage enrichment (tunnels, nesting material, wooden igloos, etc.). For behavioral tests, the mice were selected randomly; each group consisted of 7–10 mice. […] The procedures for maintenance and treatment of laboratory animals were approved by the first Local Ethics Committee in Krakow (Approval No. 645/2022, 760/2023, and 829/2024 and the treatment of animals was in full accordance with ethical standards laid down in respective Polish and EU regulations (Directive 2010/63/EU).
as §2
The experiment was conducted in opaque black boxes with dimensions of 50 × 50 × 50 cm. The 3 day procedure consists of habituation to the test arena (without any objects) for 10 min on the first day (T0), a training trial (T1), and a testing trial (T2) separated by a 24 h intertrial interval. During T1 (familiarization trial), two identical objects (A and B) were presented in the opposite corners of the arena, approximately 5 cm from its walls. During T2 (recognition trial), one of the objects (B) was replaced by a novel object (C), so that the animals were presented with A (familiar) and C (novel) objects. Both T1 and T2 trials lasted for 10 min, and after each trial, the animals returned to their home cages. White plastic round containers (height 5 cm, diameter 5 cm) attached to the ground with double-sided tape were used as the A, B objects, and green cuboids of similar height were used as object C. The objects were stable enough so that the animals could not displace them. The sequence of presentations and the location of the objects were randomly assigned to each mouse. The animals explored the objects by looking, licking, sniffing, or touching them while sniffing, but not when leaning against, standing, or sitting on the objects. Any mouse exploring the two objects for less than 5 s within the 10 min duration of T1 or T2 was eliminated from the study. An experimenter, blind to the drug treatment, measured the exploration time of the objects.
In series [11] the test system is mice (motor coordination). Kind of series: Rotarod test. The following applies: 6, 18, and 24 rpm; all mice of the group.
Description: For behavioral tests, the mice were selected randomly; each group consisted of 7–10 mice.
In the rotarod, locomotor activity, and MWM tests, only one dose effective in the scopolamine model of amnesia was evaluated.
Three days before the rotarod test, the mice were trained on the rotarod apparatus (Rotarod apparatus, May Commat RR0711, Turkey; rod diameter: 2 cm) that was rotated at a fixed speed of 18 rpm. In each training session, the mice were placed on the rotating rod for 3 min with an unlimited number of trials. The proper experiment was performed 24 h after the last training trial. […] Motor impairments in mice were defined as the inability to remain on the rotarod apparatus for 1 min. The results are expressed as the mean time spent on the rotarod.
Series [12] deals with PBMCs. In words: Cytokine release from PHA-stimulated PBMCs. The class given is cell-based, human. The following applies: 1, 2.5, and 5 μM, 18 h. The protocol: Human PBMCs from healthy donors were isolated from heparinized blood by density gradient centrifugation with Ficoll-Paque. The isolated cells were washed twice with PBS, resuspended in RPMI 1640 medium (Sigma-Aldrich, St. Louis, MO, USA) supplemented with 10% heat-inactivated fetal bovine serum (Gibco), 2 mM L-glutamine (Sigma-Aldrich), 100 U/mL penicillin (Sigma-Aldrich), and 100 μg/mL streptomycin (Sigma-Aldrich), and used in the assays.
Peripheral blood mononuclear cells were seeded (500,000 cells/well) in 24-well plates in 500 μL of growth medium and treated with compounds 94, 95, and neflamapimod (1, 2.5, and 5 μM) in the presence or absence of PHA (1 μg/mL) or the corresponding vehicle (0.1% DMSO). Cell-free supernatants were collected after 18 h of incubation (37 °C, 5% CO2) and stored at −80 °C until tested. Cytokine production was determined with BD Cytometric Bead Array human inflammatory cytokines kit (BD Bioscience) on an Attune NxT flow cytometer (Thermo Fisher Scientific, Waltham, MA, USA). Standard curves were generated using recombinant cytokines contained in the kit. The data were analyzed using the FlowJo (Tree Star, Inc., Ashland, OR, USA) and Prism (GraphPad Prism 6.0, GraphPad Software) software.

Series [13] concerns the target human p38α MAPK (Homo sapiens, UniProt Q16539). To be noted: residual activity at 100 μM; mean ± SD, one experiment in triplicate.
Description: The inhibitory activities against human p38α MAPK were evaluated using the commercially available ADP-Glo Kinase Assay (Promega, Inc., USA).
For the reference sample, 1% [v/v] DMSO replaced the inhibitor solution. […] The enzyme reaction was started with the addition of the enzyme solution. The DMSO concentration in the test solution was maintained at 1% [v/v]. The plate was incubated for 60 min. Then 5 μL of ADP-Glo reagent was added, followed by a 40 min incubation at room temperature. […] All incubations were performed at room temperature. The RA and IC50 values were calculated as described above (ChEs inhibitory potency).
Series [14] addresses hBChE (Homo sapiens, UniProt P06276). The following applies: residual activity at 100 μM; mean ± SD, one experiment in triplicate.
The test system of series [15] is p38α MAPK.
Series [16] has as its system hBChE.
Series [17] has as its target hAChE (Homo sapiens, UniProt P22303). The following applies: residual activity at 100 μM; mean ± SD, one experiment in triplicate.
Description: The inhibitory potencies of the compounds against the ChEs were determined using the method of Ellman. […] The final content of DMSO was always 1% [v/v]. […] The initial velocities in the presence (v i ) and absence (v 0) of the test compounds were calculated. The inhibitory potencies were expressed as the residual activities, according to RA = (v i – b)/(v 0 – b), where b is the blank value using phosphate buffer without ChEs. For IC50 determinations, at least seven different concentrations for each compound were used. The IC50 values were obtained by plotting the residual ChE activities against the applied inhibitor concentrations, with the experimental data fitted to a four-parameter logistic function (GraphPad Prism 10.0).
Series [18] relates to hAChE.
Setting [19] is: brain, rivastigmine 2.5 mg/kg i.p., mice.
Setting [20] is: male, CD-1, mouse, brain, ip, 2.5 mg/kg.
Setting [21] is: male, CD-1, mouse, ip, 2.5 mg/kg.
Where [22] appears, read: male, CD-1, mouse, serum, ip, 2.5 mg/kg.
Setting [23] is: brain, neflamapimod 30 mg/kg i.p., mice.
The mark [24] stands for this setting: male, CD-1, mouse, brain, ip, 30 mg/kg.
[25] abbreviates: male, CD-1, mouse, ip, 30 mg/kg.
Where [26] appears, read: male, CD-1, mouse, serum, ip, 30 mg/kg.
Setting [27] is: 10 mg/kg i.p., p < 0.05 vs LPS-treated control.

Where “and” joins values, the source holds several entries; their conditions need not be identical. Equal values may be shown once.

Chain of hBChE (Homo sapiens, UniProt P06276) (P06276 29-602): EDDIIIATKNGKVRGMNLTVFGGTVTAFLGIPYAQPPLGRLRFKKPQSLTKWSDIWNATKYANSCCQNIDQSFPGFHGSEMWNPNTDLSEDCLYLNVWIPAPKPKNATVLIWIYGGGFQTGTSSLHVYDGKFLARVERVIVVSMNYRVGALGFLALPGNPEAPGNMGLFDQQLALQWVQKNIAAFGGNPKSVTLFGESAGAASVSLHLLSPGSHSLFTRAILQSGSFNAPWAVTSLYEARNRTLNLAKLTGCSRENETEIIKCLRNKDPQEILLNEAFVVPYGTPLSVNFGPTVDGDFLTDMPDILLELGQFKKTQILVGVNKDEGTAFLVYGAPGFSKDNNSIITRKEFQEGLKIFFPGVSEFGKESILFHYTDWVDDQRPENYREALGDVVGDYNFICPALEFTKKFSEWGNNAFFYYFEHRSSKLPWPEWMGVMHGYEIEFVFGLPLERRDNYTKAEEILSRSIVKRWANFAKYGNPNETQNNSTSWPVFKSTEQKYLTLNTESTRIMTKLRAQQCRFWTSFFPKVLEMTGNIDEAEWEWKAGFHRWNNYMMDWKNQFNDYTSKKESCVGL
Chain of hAChE (Homo sapiens, UniProt P22303) (P22303 32-614): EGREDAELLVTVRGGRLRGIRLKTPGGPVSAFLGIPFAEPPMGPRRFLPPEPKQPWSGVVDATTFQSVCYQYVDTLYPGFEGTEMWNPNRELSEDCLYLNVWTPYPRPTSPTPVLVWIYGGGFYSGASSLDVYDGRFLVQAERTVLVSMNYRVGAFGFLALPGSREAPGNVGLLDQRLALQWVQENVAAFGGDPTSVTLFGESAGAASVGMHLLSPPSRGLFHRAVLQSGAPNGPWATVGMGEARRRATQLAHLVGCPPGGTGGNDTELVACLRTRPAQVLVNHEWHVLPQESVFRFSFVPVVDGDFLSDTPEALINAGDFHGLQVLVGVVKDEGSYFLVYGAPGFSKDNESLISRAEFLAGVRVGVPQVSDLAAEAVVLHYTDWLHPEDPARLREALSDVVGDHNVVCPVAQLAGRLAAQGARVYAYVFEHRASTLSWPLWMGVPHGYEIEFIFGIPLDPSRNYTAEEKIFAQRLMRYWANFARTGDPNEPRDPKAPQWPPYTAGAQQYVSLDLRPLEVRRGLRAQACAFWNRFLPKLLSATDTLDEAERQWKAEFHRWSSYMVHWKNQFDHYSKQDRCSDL
Chain of human p38α MAPK (Q16539 whole entry): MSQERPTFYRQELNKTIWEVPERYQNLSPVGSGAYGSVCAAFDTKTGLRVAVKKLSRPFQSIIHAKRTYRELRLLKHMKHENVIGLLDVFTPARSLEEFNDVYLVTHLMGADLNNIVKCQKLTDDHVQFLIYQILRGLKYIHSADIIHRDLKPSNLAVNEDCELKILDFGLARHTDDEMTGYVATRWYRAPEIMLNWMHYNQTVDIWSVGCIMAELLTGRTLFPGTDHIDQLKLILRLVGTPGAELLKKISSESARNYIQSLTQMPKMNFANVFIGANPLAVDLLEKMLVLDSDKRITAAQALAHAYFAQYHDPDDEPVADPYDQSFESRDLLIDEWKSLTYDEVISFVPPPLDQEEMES

Take `CCN(C)C(=O)Oc1cccc([C@H](C)N(C)C)c1` [rivastigmine, reference compound]: in series [1], the “motor side effects shortly after administration” value is “caused muscle tremor and transient motor coordination deficits”. Besides, the “CNS (+/–)” value in [2] was “CNS+ (key: CNS+ indicates high predicted BBB permeation [Pe (×10–6 cm/s) > 4.0]; CNS– indicates low predicted BBB permeation [Pe (×10–6 cm/s) < 2.0])”. Moreover, in series [3], the “brain cPLA2 expression” value is given as “no difference”; the “brain levels of TLR4, COX-2, and NLRP3” value is listed as “significantly lower levels”. Besides, the “procognitive efficacy in PA task” value in series [4] is recorded as “procognitive activity”. The “efficacy in PA and NOR tasks” value in series [5] is “effective”. In addition, in [6] (setting [19]), the “AUC0-∞” value is listed as 12082.71 ng·min/mL(g), the AUC(0-t) is listed as 11678.40 ng·min/mL(g) and the t0.5λz was determined as 32.64 min. Further, in [6] (setting [20]), the highest level (Cmax) was 609 ng/g, the MRT is 26.6 min, the Tmax was 5 min and the k el is 0.00035 s⁻¹. In series [6] (setting [21]), this molecule registered a Kp of 4.16 and a half-life of approximately 30 min. Further, in series [6] (setting [22]), the AUC(0-inf) was 48.4 ng·h/mL, the AUC(0-t) was 46.8 ng·h/mL, the apparent clearance (CL/F) was 860 mL/min/kg and the Cmax amounted to 142 ng/mL. Moreover, in series [6] (setting [22]), the MRT is 27.8 min, the Tmax is 5 min, the Vd/F was 37.2 L/kg and the k el is 0.000383 s⁻¹. The molecule also returned a t0.5λz in series [6] (serum, rivastigmine 2.5 mg/kg i.p., mice) of 29.99 min. The “efficacy in the LPS model of neuroinflammation accompanied by memory decline” value in series [7] (1 mg/kg i.p.) is reported as “not effective”. Also, the “escape latency, acquisition phase of MWM” value in series [7] (1 mg/kg i.p., vs LPS-treated control, transient, not on days 4–6) is given as “statistically significantly lower escape latencies were observed on day 3”.
On to `O=c1ncn2nc(Sc3ccc(F)cc3F)ccc2c1-c1c(Cl)cccc1Cl` [neflamapimod, reference compound], for which the “effect on scopolamine-induced memory decline in PA task” value in series [8] is “did not confirm memory-improving properties”. The “number of light-beam crossings” value in [9] is given as 2481 ± 195. Besides, in [10], the “effect in NOR task” value was “did not reveal its memory-improving properties”. Further, the “time spent on the rotarod” value in [11] turned out to be 60 s. Moreover, in series [12], the “production of pro-inflammatory cytokines IL-8, IL-1β, IL-6, IL-10, and TNF-α” value is “significantly inhibited”. Also, in [6] (setting [23]), the “AUC0-∞” value was 755355.60 ng·min/mL(g), the area under the curve AUC(0-t) is 566796.70 ng·min/mL(g) and the t0.5λz is 1049.79 min. For the same molecule, in series [6] (setting [24]), the maximum concentration (Cmax) came out at 2290 ng/g, the MRT is 999 min, the Tmax is 15 min and the k el was 1.1e-05 s⁻¹. In series [6] (setting [25]), this molecule had a Kp of 0.68 and a half-life of approximately 1000 min. In addition, in [6] (setting [26]), the AUC(0-inf) was 18700 ng·h/mL, the AUC(0-t) was 14400 ng·h/mL, the CL/F is 27 mL/min/kg and the highest level (Cmax) was 4090 ng/mL. Moreover, in [6] (setting [26]), the MRT is 903 min, the Tmax was 15 min, the Vd/F is 37.8 L/kg and the k el was 1.18e-05 s⁻¹. The t0.5λz in [6] (serum, neflamapimod 30 mg/kg i.p., mice) is on record as 978.45 min. Besides, in [7] (setting [27]), the “time spent at the target zone (MWM day 7)” value was “increased” and the “time spent in the NW zone (MWM day 7)” value is “increased”. Besides, the “spatial learning, acquisition phase of MWM” value in series [7] (10 and 30 mg/kg i.p., LPS-treated mice) was “effective in improving spatial learning only on day 3”.
For the molecule `COc1ccc(Oc2cc3cnn(CC(C)C)c3cc2C(=O)NCCN(C)C)cc1` [Compound 91, N-(2-(Dimethylamino)ethyl)-1-isobutyl-5-(4-methoxyphenoxy)-1H-indazole-6-carboxamide], in [13], the “p38α MAPK RA at 100 μM” value is recorded as 0.9 ± 0.3%. The “hBChE RA at 100 μM” value in [14] is 54.1% and 54.1 ± 1.3%. Further, the “RA at 100 µM” value in [15] was determined as 0.9 ± 0.3%; in series [16], 54.1 ± 1.3%; in series [18], 75.2 ± 3.8%. Also, the “hAChE RA at 100 μM” value in series [17] is 75.2% and 75.2 ± 3.8%.
